Experimental findings from patent US6403626B1, “Benzimidazole derivatives” (Synaptic Pharmaceutical Corporation, priority 1994, dated 2002) are described below.

Assay [1] has as its target T1, α1C Human Adrenergic Receptor (Homo sapiens, UniProt P35348).
T1 construct: expressed in transfected cells; host or cells: LM(tk-) cells
T1 sequence (P35348 1-466): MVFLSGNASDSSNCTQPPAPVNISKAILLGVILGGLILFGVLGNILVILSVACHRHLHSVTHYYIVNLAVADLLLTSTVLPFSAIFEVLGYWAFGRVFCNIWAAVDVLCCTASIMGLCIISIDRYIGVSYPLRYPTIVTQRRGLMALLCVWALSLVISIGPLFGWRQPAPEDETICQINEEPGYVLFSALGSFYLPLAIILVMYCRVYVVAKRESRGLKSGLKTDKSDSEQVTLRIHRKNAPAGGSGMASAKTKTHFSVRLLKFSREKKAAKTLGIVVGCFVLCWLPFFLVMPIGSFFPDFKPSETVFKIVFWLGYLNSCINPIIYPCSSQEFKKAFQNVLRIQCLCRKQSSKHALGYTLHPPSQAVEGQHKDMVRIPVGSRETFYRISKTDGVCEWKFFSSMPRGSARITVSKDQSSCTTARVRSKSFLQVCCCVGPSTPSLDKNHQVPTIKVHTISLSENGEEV
Put plainly: Equilibrium competition binding, [3H] prazosin, membranes of transfected LM(tk-) cells. As for the experimental part:
(§1) Binding and functional assays were performed using stably transfected human alpha adrenergic receptors. Equilibrium competition binding assays were performed with membrane preparations from cultured LM(tk-) cells stably transfected with the cloned human adrenoceptor subtypes except for α2b, which was expressed in Y-1 cells, using [^3H] prazosin for α1 receptors and [^3H] rauwolscine for α2 receptors.
(§2) Transfected cells from culture flasks were scraped into 5 ml of 5 mM Tris-HCl, 5 mM EDTA, pH 7.5, and lysed by sonication. The cell lysates were centrifuged at 1000 rpm for 5 min at 4° C., and the supernatant was centrifuged at 30,000×g for 20 min at 4° C. The pellet was suspended in 50 mM Tris-HCl, 1 mM MgCl2, and 0.1% ascorbic acid at pH 7.5. Binding of α2 antagonist [^3H] rauwolscine ([…]) to membrane preparations of LM(tk-) cells was done in a final volume of 0.25 ml and incubated at 37° C. for 20 min. Nonspecific binding was determined in the presence of 10 μM phentolamine. The reaction was stopped by filtration through GF/B filters using a cell harvester.
The construct involved ligation three partial overlapping fragments: a 5′ 0.6 kb HincII genomic clone, a central 1.8 EcoRI hippocampal cDNA clone, and a 3′ 0.6 Kb PstI genomic clone. The hippocampal cDNA fragment overlaps with the 5′ and 3′ genomic clones so that the HincII and PstI sites at the 5 and 3′ ends of the cDNA clone, respectively, were utilized for ligation. This full-length clone was cloned into the KpnI site of the expression vector, using the 5′ and 3′ KpnI sites of the fragment, derived from vector (i.e., pBluescript) and 3′-untranslated sequences, respectively. Stable cell lines were selected as described above.

The target of assay [2] is T2, α1A Human Adrenergic Receptor (Homo sapiens, UniProt P25100).
T2 construct: expressed in transfected cells; host or cells: LM(tk-) cells
T2 sequence (P25100 1-572): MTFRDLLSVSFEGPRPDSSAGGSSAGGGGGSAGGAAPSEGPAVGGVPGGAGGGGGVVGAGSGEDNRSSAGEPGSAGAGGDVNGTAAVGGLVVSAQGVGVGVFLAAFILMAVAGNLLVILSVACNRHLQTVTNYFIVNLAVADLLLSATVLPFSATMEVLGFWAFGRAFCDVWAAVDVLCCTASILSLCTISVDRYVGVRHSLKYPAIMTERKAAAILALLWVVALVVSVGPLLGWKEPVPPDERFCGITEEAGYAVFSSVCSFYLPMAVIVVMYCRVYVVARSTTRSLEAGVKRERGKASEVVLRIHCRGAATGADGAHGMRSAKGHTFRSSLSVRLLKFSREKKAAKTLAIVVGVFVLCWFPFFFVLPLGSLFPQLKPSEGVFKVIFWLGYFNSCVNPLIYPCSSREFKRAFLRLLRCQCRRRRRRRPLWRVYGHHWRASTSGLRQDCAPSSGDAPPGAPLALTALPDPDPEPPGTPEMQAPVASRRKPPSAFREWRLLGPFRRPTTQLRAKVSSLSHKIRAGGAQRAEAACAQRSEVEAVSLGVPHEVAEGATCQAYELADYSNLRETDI
The assay is described as above. As for the experimental part:
as §1, §2
(§3) Stable cell lines were selected as described above.

The target in assay [3] is T3, α1B Human Adrenergic Receptor (Homo sapiens, UniProt P35368).
T3 construct: The entire coding region of α1B(1563 bp); expressed in transfected cells; host or cells: LM(tk-) cells
T3 sequence (P35368 1-520): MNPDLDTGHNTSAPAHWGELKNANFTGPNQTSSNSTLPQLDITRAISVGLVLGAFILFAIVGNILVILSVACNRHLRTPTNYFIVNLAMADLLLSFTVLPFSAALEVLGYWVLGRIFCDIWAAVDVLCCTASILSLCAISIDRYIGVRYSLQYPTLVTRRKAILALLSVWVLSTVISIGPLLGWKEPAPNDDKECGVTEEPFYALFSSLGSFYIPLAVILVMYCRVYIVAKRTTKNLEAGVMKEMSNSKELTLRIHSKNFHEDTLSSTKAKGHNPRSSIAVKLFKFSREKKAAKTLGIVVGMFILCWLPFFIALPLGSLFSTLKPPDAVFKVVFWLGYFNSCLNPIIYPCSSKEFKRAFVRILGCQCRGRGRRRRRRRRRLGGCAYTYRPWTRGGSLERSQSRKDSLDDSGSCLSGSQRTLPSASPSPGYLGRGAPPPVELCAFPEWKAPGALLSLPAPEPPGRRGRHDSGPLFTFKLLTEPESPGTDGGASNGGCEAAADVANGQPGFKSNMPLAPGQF
The description is as above. The protocol: as §1, §2
The construct involved ligating the full-length containing EcoRI brainstem cDNA fragment from ZapII into the expression vector. The stable cell lines were selected as described above.

Assay [4] deals with T4, α2B Human Adrenergic Receptor (Homo sapiens, UniProt P18089).
T4 construct: expressed in transfected cells; host or cells: Y-1 cells
T4 sequence (P18089 1-450): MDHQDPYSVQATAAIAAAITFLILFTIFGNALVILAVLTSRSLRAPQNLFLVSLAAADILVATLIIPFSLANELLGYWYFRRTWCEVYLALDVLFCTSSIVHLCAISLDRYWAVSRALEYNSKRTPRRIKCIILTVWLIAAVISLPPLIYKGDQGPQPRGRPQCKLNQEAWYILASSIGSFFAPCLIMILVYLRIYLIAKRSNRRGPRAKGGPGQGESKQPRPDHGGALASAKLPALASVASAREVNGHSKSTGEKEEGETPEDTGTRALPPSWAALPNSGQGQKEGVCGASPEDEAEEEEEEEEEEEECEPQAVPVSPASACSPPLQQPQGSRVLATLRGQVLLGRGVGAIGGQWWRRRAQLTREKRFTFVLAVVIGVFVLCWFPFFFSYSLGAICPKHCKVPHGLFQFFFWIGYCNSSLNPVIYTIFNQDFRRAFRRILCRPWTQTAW
The assay is described as follows: Equilibrium competition binding, [3H] rauwolscine, membranes of transfected Y-1 cells. The protocol:
as §1, §3, §2

Assay [5] deals with T5, α2C Human Adrenergic Receptor (Homo sapiens, UniProt P18825).
T5 sequence (P18825 1-462): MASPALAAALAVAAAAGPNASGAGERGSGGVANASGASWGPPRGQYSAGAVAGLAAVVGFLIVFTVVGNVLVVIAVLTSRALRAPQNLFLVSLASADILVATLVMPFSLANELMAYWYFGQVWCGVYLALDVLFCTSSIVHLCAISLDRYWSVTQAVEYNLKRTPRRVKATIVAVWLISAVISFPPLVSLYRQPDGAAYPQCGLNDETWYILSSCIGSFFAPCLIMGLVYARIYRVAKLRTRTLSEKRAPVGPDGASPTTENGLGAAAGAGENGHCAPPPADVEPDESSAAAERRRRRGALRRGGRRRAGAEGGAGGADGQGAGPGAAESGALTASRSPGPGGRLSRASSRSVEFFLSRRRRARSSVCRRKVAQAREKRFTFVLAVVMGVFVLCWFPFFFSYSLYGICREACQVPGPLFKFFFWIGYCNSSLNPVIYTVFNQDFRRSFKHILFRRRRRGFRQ
The assay is described as follows: Equilibrium competition binding, [3H] rauwolscine, membranes of transfected LM(tk-) cells.

Where [6] appears, read: cloned human receptor, [3H] prazosin, read-out: pKi Alpha-1 C (converted).
[7] abbreviates: cloned human receptor, [3H] prazosin, read-out: pKi Alpha-1 B (converted).
Setting [8] is: cloned human receptor, [3H] rauwolscine, read-out: pKi Alpha-2 B (converted).

Like-named read-outs stand apart in the source and are kept apart here.

With `c1cc2c(cc1NC1=NCCN1)ncn2C1CCCC1` [Example 25, 1-Cyclopentyl-5-(2-imidazolin-2-ylamino)Benzimidazole], the Ki in assay [1] (setting [6]) is 9770 nM; in assay [2], 6170 nM; in assay [3] (setting [7]) it was 44700 nM; in assay [4] it was 646 nM; in assay [5], 437 nM.

As to `Cn1cnc2ccc(NC3=NCCN3)cc21` [Example 11, 3-Methyl-5-(2-imidazolin-2-ylamino)Benzimidazole], the Ki in assay [1] (setting [6]) was 5750 nM; in assay [2], 10000 nM; in assay [3] (setting [7]), 35500 nM; in assay [4] it was 224 nM; in assay [5], 1120 nM.

On to `NCCn1cnc2c(Br)c(NC3=NCCN3)ccc21` [Example 40, 1-(2-Aminoethyl)-4-bromo-5-(2-imidazolin-2-ylamino)Benzimidazole], for which the Ki in assay [1] (setting [6]) is 9120 nM; in assay [2] (cloned human receptor, [3H] prazosin, read-out: pKi Alpha-1 A (converted)), 9330 nM; in assay [3] (setting [7]) it was 26900 nM; in assay [4] (setting [8]) it was 955 nM; in assay [5], 2820 nM.

As to `CC(C)n1cnc2c(Br)c(NC3=NCCN3)ccc21` [Example 18, 1-Isopropyl-4-bromo-5-(2-imidazolin-2-ylamino)Benzimidazole], the Ki is 891 nM in assay [1] (setting [6]); 2690 nM in assay [2]; 20000 nM in assay [3] (setting [7]); 372 nM in assay [4]; 282 nM in assay [5].

Turning to `CCCn1cnc2ccc(NC3=NCCN3)cc21` [Example 15, 3-Propyl-5-(2-imidazolin-2-ylamino)Benzimidazole], the Ki in assay [1] (setting [6]) was 4900 nM; in assay [2] it was 6460 nM; in assay [3] (setting [7]), 34700 nM; in assay [4] (setting [8]), 724 nM; in assay [5], 871 nM.

For `CC(C)n1cnc2ccc(NC3=NCCN3)cc21` [Example 20, 3-Isopropyl-5-(2-imidazolin-2-ylamino)Benzimidazole], the Ki in assay [1] (setting [6]) was 11200 nM; in assay [2], 14800 nM; in assay [3] (setting [7]), 58900 nM; in assay [4] (setting [8]), 724 nM; in assay [5] it was 631 nM.

Consider `CC(C)Cn1cnc2cc(NC3=NCCN3)ccc21` [Example 22, 1-Isobutyl-5-(2-imidazolin-2-ylamino)Benzimidazole], for which the Ki in assay [1] (setting [6]) was 1860 nM; in assay [2] it was 10500 nM; in assay [3] (setting [7]), 105000 nM; in assay [4], 427 nM; in assay [5], 182 nM.

For `c1cc2ncn(C3CCCC3)c2cc1NC1=NCCN1` [Example 27, 3-Cyclopentyl-5-(2-imidazolin-2-ylamino)Benzimidazole], the Ki in assay [1] (setting [6]) is 6920 nM; in assay [2] it was 8320 nM; in assay [3] (setting [7]), 33900 nM; in assay [4], 1020 nM; in assay [5], 724 nM.

As to `c1ccc(Cn2cnc3ccc(NC4=NCCN4)cc32)cc1` [Example 34, 3-Benzyl-5-(2-imidazolin-2-ylamino)Benzimidazole], the Ki is 1350 nM in assay [1]; 2570 nM in assay [2]; 12000 nM in assay [3]; 89.1 nM in assay [4] (setting [8]); 186 nM in assay [5].

Regarding `Brc1c(NC2=NCCN2)ccc2ncn(Cc3ccccc3)c12` [Example 35, 3-Benzyl-4-bromo-5-(2-imidazolin-2-ylamino)Benzimidazole], the Ki was 794 nM in assay [1]; 309 nM in assay [2]; 1950 nM in assay [3]; 15.8 nM in assay [4] (setting [8]); 17 nM in assay [5].

With `Brc1c(NC2=NCCN2)ccc2ncn(CC3CCCCC3)c12` [Example 31, 3-Cyclohexylmethyl-4-bromo-5-(2-imidazolin-2-ylamino)Benzimidazole], the Ki was 372 nM in assay [1]; 257 nM in assay [2]; 2140 nM in assay [3]; 37.2 nM in assay [4] (setting [8]); 38.9 nM in assay [5].

Regarding `c1ccc(Cn2cnc3cc(NC4=NCCN4)ccc32)cc1` [Example 32, 1-Benzyl-5-(2-imidazolin-2-ylamino)Benzimidazole], the Ki in assay [1] is 3890 nM; in assay [2] it was 3720 nM; in assay [3], 33100 nM; in assay [4] (setting [8]), 50.1 nM; in assay [5], 162 nM.

Take `Brc1c(NC2=NCCN2)ccc2ncn(C3CCCC3)c12` [Example 28, 3-Cyclopentyl-4-bromo-5-(2-imidazolin-2-ylamino)Benzimidazole]: the Ki in assay [1] is 3800 nM; in assay [2] it was 661 nM; in assay [3], 10500 nM; in assay [4] (setting [8]) it was 41.7 nM; in assay [5] it was 95.5 nM.
